Where two headings read alike, the source gives them in different places.
How the values were obtained:
shikimate kinase (SaSK) [1] = target: T1, shikimate kinase (SaSK) (Staphylococcus aureus, UniProt Q5HFM1); assay: pyruvate kinase/lactate dehydrogenase coupled assay with purified SaSK; Lineweaver-Burk (Ki […] vs shikimate, […] vs ATP); type: biochemical
T1 construct: gene aroK

shikimate kinase (SaSK) [2] = target: T2, shikimate kinase (SaSK) (Staphylococcus aureus, UniProt Q5HFM1); assay: biochemical; set-up: Coupled PK/LDH assay of purified SaSK, NADH oxidation at 340 nm, fixed-concentration inhibition screen, 25 °C
T2 construct: gene aroK
T2 sequence (Q5HFM1 1-174): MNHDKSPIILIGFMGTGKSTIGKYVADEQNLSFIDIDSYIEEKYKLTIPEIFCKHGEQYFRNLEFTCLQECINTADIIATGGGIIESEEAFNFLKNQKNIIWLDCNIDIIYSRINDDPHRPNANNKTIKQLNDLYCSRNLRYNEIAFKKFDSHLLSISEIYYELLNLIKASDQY
Protocol: The activity of purified SaSK was measured by a coupled assay described by Favela et al., [67] following the oxidation of NADH to NAD, monitored at 340 nm using an Hp Agilent 8453 UV-VIS spectrophotometer. The assay mixture contained 100 mM Tris-HCl pH 7.6, 5 mM MgCl2, 100 mM KCl, 2 mM ATP, 1 mM shikimate, 1 mM phosphoenolpyruvate, 6 μg/mL pyruvate kinase, 6 μg/mL lactate dehydrogenase, 0.25 mM NADH, 10% of dimethyl sulfoxide (DMSO), and 70 ng of purified SaSK protein. All assays were performed in triplicate at 25 °C. It is important to mention that at the percentage of DMSO used, the activity of the enzyme was not affected. The primary screening of the benzimidazole compound library was carried out at a fixed concentration of 200 µM or at the maximum solubility possible for compounds with poor solubility in assay conditions. All the compounds were dissolved in DMSO.

shikimate kinase (SaSK) [3] = target: T1, shikimate kinase (SaSK); assay: pyruvate kinase/lactate dehydrogenase coupled assay with purified SaSK; Lineweaver-Burk (Ki […] vs shikimate, […] vs ATP); type: biochemical; remark: listed apart in the source
shikimate kinase (SaSK) [4] = target: T1, shikimate kinase (SaSK); assay: coupled enzyme assay, purified SaSK, % inhibition at […]; type: biochemical

Compound `O=C(NN=Cc1ccc([N+](=O)[O-])o1)c1ccc2[nH]cnc2c1` [C1, N′-[(5-Nitrofuran-2-yl)methylene]-1H-benzimidazole-5-carbohydrazide] has a Ki (shikimate kinase (SaSK) [1]) of 48 µM and an inhibition at 70 µM (shikimate kinase (SaSK) [2]) of 50%.
In the case of `Cn1c(C(F)(F)F)nc2cc(C(=O)NN=Cc3ccc([N+](=O)[O-])o3)ccc21` [C2, 1-Methyl-N′-[(5-nitrofuran-2-yl)methylene]-2-(trifluoromethyl)-1H-benzimidazole-5-carbohydrazide], the Ki (shikimate kinase (SaSK) [3]) is reported as 50 µM and the inhibition at 100 µM (shikimate kinase (SaSK) [2]) is reported as 60%.
In the case of `O=C(NN=Cc1ccc([N+](=O)[O-])o1)c1ccc2[nH]c(C(F)(F)F)nc2c1` [C3, N′-[(5-Nitrofuran-2-yl)methylene]-2-(trifluoromethyl)-1H-benzimidazole-5-carbohydrazide], the inhibition at 100 µM (shikimate kinase (SaSK) [4]) is reported as 43%.
In the case of `Cn1cnc2cc(C(=O)NN=Cc3ccc([N+](=O)[O-])o3)ccc21` [C4, 1-Methyl-N′-[(5-nitrofuran-2-yl)methylene]-1H-benzimidazole-5-carbohydrazide], the inhibition at 100 µM (shikimate kinase (SaSK) [4]) is reported as 40%.
